From patent publication US4550078A, “Method for the quantitative determination of individual polyamine components in a mixture” (Amano Seiyaku Kabushiki Kaisha, priority 1982, dated 1985)
Read-outs that look alike come from different tables or passages of the source. Values belong to the compound of their own block, whether it stands above or below them.

Key:
putrescine oxidase [1] = target: T1, putrescine oxidase (Kocuria rosea, UniProt P40974); conditions: cited from earlier work
T1 sequence (P40974 1-478): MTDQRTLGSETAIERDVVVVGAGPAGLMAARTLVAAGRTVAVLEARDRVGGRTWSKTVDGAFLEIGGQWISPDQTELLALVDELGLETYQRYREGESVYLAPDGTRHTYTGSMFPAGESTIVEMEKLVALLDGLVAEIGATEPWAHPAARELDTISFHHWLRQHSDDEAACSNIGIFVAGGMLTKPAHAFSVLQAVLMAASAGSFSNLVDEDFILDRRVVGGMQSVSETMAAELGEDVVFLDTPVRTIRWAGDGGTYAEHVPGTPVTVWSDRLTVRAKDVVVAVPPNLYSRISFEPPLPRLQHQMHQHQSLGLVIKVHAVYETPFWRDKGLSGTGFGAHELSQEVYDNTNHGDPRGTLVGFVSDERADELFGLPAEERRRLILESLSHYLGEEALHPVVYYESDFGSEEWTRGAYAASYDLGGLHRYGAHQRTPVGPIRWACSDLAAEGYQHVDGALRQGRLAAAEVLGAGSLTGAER

polyamine oxidase PC-3 [2] = assay: Enzymatic oxidative decomposition by polyamine oxidase PC-3, colorimetric determination of hydrogen peroxide; format: biochemical; conditions: for Activity of the enzyme on the substrate: N8-acetylspermidine only if the concentration of the enzyme is relatively high; for H2O2 formed: substrates marked * only with a relatively high concentration of the enzyme, -- = no activity; for hydrogen peroxide produced per mole of the substrate / time to completion of the reaction: pH 5.5, 35° C., about 0.05 unit of enzyme (about 15 units for N8-acetylspermidine)
[3] = test system: polyamine oxidase PC-3 followed by acetylputrescine oxidase; assay: Two-step reaction: polyamine oxidase PC-3, then acetylputrescine oxidase; format: biochemical
polyamine oxidase AT-1 [4] = assay: Enzymatic oxidative decomposition by polyamine oxidase AT-1, colorimetric determination of hydrogen peroxide; format: biochemical; conditions: for putrescine formed / H2O2 formed: Table 1, substrates marked * only with a relatively high concentration of the enzyme; for H2O2 formed: -- = no activity; for hydrogen peroxide produced per mole of the substrate / time to completion of the reaction: pH 6.5, 35° C., 0.05 unit of enzyme (2 units for acetylspermine); for Activity of the enzyme on the substrate: spermine and spermidine at low enzyme concentration, acetylspermine and N1-acetylspermidine when the concentration of the enzyme is increased
putrescine oxidase [5] = target: T1, putrescine oxidase; assay: Enzymatic oxidative decomposition by putrescine oxidase, colorimetric determination of hydrogen peroxide; format: biochemical; conditions: for H2O2 formed: Table 1, -- = no activity; for hydrogen peroxide produced per mole of the substrate / time to completion of the reaction: borate buffer pH 8.5, 35° C., about 0.5 unit of enzyme
[6] = test system: polyamine oxidase AT-1 followed by putrescine oxidase; assay: Two-step reaction: polyamine oxidase AT-1, then putrescine oxidase; format: biochemical; conditions: for absorbance after the first step / increment of absorbance in the second step / absorbance after the second step: 505 nm; for absorbance after the first step: AT-1 0.05 unit (about 5 units for acetylspermine and N1-acetylspermidine), 0.5 ml of 400 μM substrate in 2.5 ml; for increment of absorbance in the second step: after addition of putrescine oxidase; for absorbance after the second step: putrescine oxidase 0.5 unit, pH 8-9, 5 minutes; for hydrogen peroxide produced per mole of the substrate in the first step: polyamine oxidase AT-1; for hydrogen peroxide produced in the second step: putrescine oxidase acting on the putrescine produced in the first step
[7] = test system: polyamine oxidase PC-3 followed by putrescine oxidase; assay: Two-step reaction: polyamine oxidase PC-3, then putrescine oxidase; format: biochemical; conditions: for absorbance after the first step / increment of absorbance in the second step / absorbance after the second step: 505 nm; for absorbance after the first step: PC-3 about 0.05 unit, acetate buffer pH 5.0; for increment of absorbance in the second step: after addition of putrescine oxidase; for absorbance after the second step: putrescine oxidase about 0.5 unit, pH 8-8.5, 5 minutes; for hydrogen peroxide produced per mole of the substrate in the first step: polyamine oxidase PC-3; for hydrogen peroxide produced per mole of the substrate in the second step: putrescine oxidase
polyamine oxidase AT-1 [8] = conditions: cited from earlier work
polyamine oxidase PC-3 [9] = conditions: cited from earlier work

Compound: NCCCN [1,3-diaminopropane]
Substrate specificity (putrescine oxidase [1]): inactive

Activity of the enzyme on the substrate (polyamine oxidase PC-3 [2]): active
acetylputrescine formed (polyamine oxidase PC-3 [2]; Table 1, relatively high concentration of the enzyme): 1 moles per mole of the substrat
H2O2 formed (polyamine oxidase PC-3 [2]; Table 1): 1 moles per mole of the substrat
hydrogen peroxide produced per mole of the substrate (polyamine oxidase PC-3 [2]): 1 mol
time to completion of the reaction (polyamine oxidase PC-3 [2]): ≤ 10 min
absorbance after the first step ([3]; 505 nm, PC-3 about 15 units, pH 5.5, 0.5 ml of 400 μM substrate in 2.5 ml): 0.500
absorbance after the second step ([3]; 505 nm, acetylputrescine oxidase about 0.5 unit, pH about 7.5, about 10 minutes): 1.000
increment of absorbance in the second step ([3]; 505 nm, after addition of acetylputrescine oxidase): 0.500
hydrogen peroxide produced per mole of the substrate in the second step ([3]; acetylputrescine oxidase): 1 mol
hydrogen peroxide produced per mole of the substrate in the first step ([3]; polyamine oxidase PC-3): 1 mol
Compound: CC(=O)NCCCCNCCCN [N^8 -acetylspermidine]

putrescine formed (polyamine oxidase AT-1 [4]): 1 moles per mole of the substrat
H2O2 formed (polyamine oxidase AT-1 [4]): 1 moles per mole of the substrat
hydrogen peroxide produced per mole of the substrate (polyamine oxidase AT-1 [4]): 1 mol
time to completion of the reaction (polyamine oxidase AT-1 [4]): ≤ 5 min
Activity of the enzyme on the substrate (polyamine oxidase AT-1 [4]): active
Activity of the enzyme on the substrate (polyamine oxidase PC-3 [2]): active
putrescine formed (polyamine oxidase PC-3 [2]; Table 1): 1 moles per mole of the substrat
H2O2 formed (polyamine oxidase PC-3 [2]; Table 1): 1 moles per mole of the substrat
hydrogen peroxide produced per mole of the substrate (polyamine oxidase PC-3 [2]): 1 mol
time to completion of the reaction (polyamine oxidase PC-3 [2]): ≤ 10 min
H2O2 formed (putrescine oxidase [5]): 1 moles per mole of the substrat
hydrogen peroxide produced per mole of the substrate (putrescine oxidase [5]): 1 mol
time to completion of the reaction (putrescine oxidase [5]): ≤ 10 min
absorbance after the first step [6]: 0.50
increment of absorbance in the second step [6]: 0.50
absorbance after the second step [6]: 1.00
hydrogen peroxide produced per mole of the substrate in the first step [6]: 1 mol
hydrogen peroxide produced in the second step [6]: 1 mol
absorbance after the first step [7]: 0.50
increment of absorbance in the second step [7]: 0.50
absorbance after the second step [7]: 1.00
hydrogen peroxide produced per mole of the substrate in the first step [7]: 1 mol
hydrogen peroxide produced per mole of the substrate in the second step [7]: 1 mol
Compound: NCCCCNCCCN [spermidine]
Substrate specificity (polyamine oxidase AT-1 [8]; oxidation with formation of hydrogen peroxide): active
Enzymatic activity: products per mole of the substrate (polyamine oxidase AT-1 [8]; polyamine oxidase AT-1): each 1 mole of putrescine, 3-aminopropanal and hydrogen peroxide
Enzymatic activity: products per mole of the substrate (polyamine oxidase PC-3 [9]; polyamine oxidase PC-3): each 1 mole of putrescine, 3-aminopropanaland hydrogen peroxide
Substrate specificity (polyamine oxidase PC-3 [9]; polyamine oxidase PC-3): active
Enzymatic activity: products per mole of the substrate (putrescine oxidase [1]): each 1 mole of 1,3-diaminopropane, 4-aminobutanal and hydrogen peroxide
Substrate specificity (putrescine oxidase [1]): active

Compound: silver
Inhibitors (polyamine oxidase AT-1 [8]; polyamine oxidase AT-1): strong inhibition
Inhibitors (polyamine oxidase PC-3 [9]; spermidine as the substrate): inhibition
Inhibitors (polyamine oxidase PC-3 [9]; spermine as the substrate): inhibition

Compound: NCCCCN [putrescine]
H2O2 formed (putrescine oxidase [5]): 1 moles per mole of the substrat
hydrogen peroxide produced per mole of the substrate (putrescine oxidase [5]): 1 mol
time to completion of the reaction (putrescine oxidase [5]): ≤ 5 min
Enzymatic activity: products per mole of the substrate (putrescine oxidase [1]): each 1 mole of 4-aminobutanal, hydrogen peroxide and ammonia
Substrate specificity (putrescine oxidase [1]): active

Compound: NCCCNCCCCNCCCN [spermine]
absorbance at completion of the reaction (polyamine oxidase AT-1 [4]; 505 nm, 0.5 ml of 400 μM substrate in 2.5 ml, pH 6.5, 35° C., 0.05 unit of enzyme): 1.00
putrescine formed (polyamine oxidase AT-1 [4]): 1 moles per mole of the substrat
H2O2 formed (polyamine oxidase AT-1 [4]): 2 moles per mole of the substrat
hydrogen peroxide produced per mole of the substrate (polyamine oxidase AT-1 [4]): 2 mol
time to completion of the reaction (polyamine oxidase AT-1 [4]): ≤ 5 min
Activity of the enzyme on the substrate (polyamine oxidase AT-1 [4]): active
Activity of the enzyme on the substrate (polyamine oxidase PC-3 [2]): active
putrescine formed (polyamine oxidase PC-3 [2]; Table 1): 1 moles per mole of the substrat
H2O2 formed (polyamine oxidase PC-3 [2]; Table 1): 2 moles per mole of the substrat
hydrogen peroxide produced per mole of the substrate (polyamine oxidase PC-3 [2]): 2 mol
time to completion of the reaction (polyamine oxidase PC-3 [2]): ≤ 5 min
absorbance after the first step [6]: 1.00
increment of absorbance in the second step [6]: 0.50
absorbance after the second step [6]: 1.50
hydrogen peroxide produced per mole of the substrate in the first step [6]: 2 mol
hydrogen peroxide produced in the second step [6]: 1 mol
absorbance after the first step [7]: 1.00
increment of absorbance in the second step [7]: 0.50
absorbance after the second step [7]: 1.50
hydrogen peroxide produced per mole of the substrate in the first step [7]: 2 mol
hydrogen peroxide produced per mole of the substrate in the second step [7]: 1 mol
Enzymatic activity: products per mole of the substrate (polyamine oxidase AT-1 [8]): 1 mole of putrescine and each 2 moles of 3-aminopropanal and hydrogen peroxide
Substrate specificity (polyamine oxidase AT-1 [8]): active
Enzymatic activity: products per mole of the substrate (polyamine oxidase PC-3 [9]): 1 mole of putrescine and each 2 moles of 3-aminopropanal and hydrogen peroxide
Substrate specificity (polyamine oxidase PC-3 [9]): active
Substrate specificity (putrescine oxidase [1]): inactive

Compound: O=C(O)CI [monoiodoacetic acid]
Inhibitors (polyamine oxidase PC-3 [9]): inhibition

Compound: O=C(O)c1cc[c]([Hg][Cl])cc1 [PCMB]
Inhibitors (polyamine oxidase PC-3 [9]; spermine as the substrate): inhibition
